From publication PMC8060220, “Comparative study of hyperpure chlorine dioxide with two other irrigants regarding the viability of periodontal ligament stem cells” (Clinical Oral Investigations, 2020)
Marks after values point to notes of the source that are not given here.

What was measured:
[1] = test system: PDLSCs; assay: Impedimetry (xCELLigence), 10 min treatment, time course and viability; assay type: cell-based, human; conditions: for long-term (2–120 h) effect on normalized CI / short-term (0–2 h) effect on normalized CI: 0.0025% and 0.00025% ClO2, 10 min treatment; for viability of PDLSC cultures, impedimetry: 48 h; for normalized Cell Index (CI) two days after the treatment: 37 °C
Protocol: The effect of irrigative agents on the viability of the PDLSC cells was assessed using the xCELLigence SP System (Roche Applied Science, Indianapolis, IN, USA), which monitors the cellular events by measuring electrical impedance across interdigitating gold microelectrodes integrated on the bottom of tissue culture plates (E-plates). The detected impedance is influenced by the viability and morphology of the attached cells on the surface of the electrodes. The presence of cells due to their insulating plasma membranes constrain the electrical current and lead to an increase in the electrode impedance. The impedance depends on the number of the attached cells and on the dimensional change of the attached cells on the electrodes. More cells attached to the electrode or spreading cause a larger increase in the impedance. The change in impedances represented as “cell index” (CI) which is a relative and dimensionless value. Briefly, the experimental protocol was as follows: to register the background value, 100 μL of culture medium was added to each well and impedance was recorded for 1 h to gain constant background curves of impedance. In the following step, PDLSCs were seeded in 10^5 cells/mL density. After 24-h incubation, they were treated with the solutions of the investigated irrigative compounds (H2O2, CHX, and ClO2) for 10 min and the medium served as reference. […] Normalized impedance to the control calculated by the integrated software (RTCA 1.2—Roche Applied Science, Indianapolis, IN, USA) was used for the statistical evaluation. Each data point represents the mathematical average of three parallels.

[2] = test system: PDLSC cultures; assay: Morphological study, phase-contrast microscopy; assay type: cell-based, human; conditions: for cell morphology and cell number under phase-contrast microscope: 48 h after treatment, 0.3% H2O2, 0.02% CHX, 0.0025% or 0.00025% ClO2
Text: Cellular morphology was observed under an inverted phase-contrast microscope (Nikon TMS). Photomicrographs were taken applying a high-performance CCD camera (COHU) and the Scion image software.

[3] = test system: PDLSCs; assay: WST-1 test, concentration-response study; assay type: cell-based, human; conditions: 48-h incubation, 50% viable cells
Protocol: (§1) To evaluate the concentration-dependent effects of the 3 antiseptic agents (H2O2, CHX, and ClO2), 9 different dilutions of each agent were prepared with growth medium (from 3.91 × 10^−6 to 10^−3 M, by 1:2 dilution in each step). As ClO2 is photosensitive and volatile, its dilution series were made in dark Eppendorf tubes which were opened only for the inevitably required time. After a 48-h-long incubation, cell viability was assessed by WST-1 test and impedimetric measurement, respectively (see below). The […] (IC50) values corresponding to the 50% viable cells or 0.5 normalized CI were determined from the concentration-effect curves in the case of the two methods, respectively.
(§2) This assay is dedicated to measuring the viability of PDLSCs. In 96-well culture plates, 10,000 PDLSCs were seeded. After 24 h, samples were treated with the irrigative compounds, and final concentrations were H2O2 0.3%, CHX 0.02%, and ClO2 0.0025% and 0.00025% solutions in 4-4 parallel wells. After 10 min, all the irrigative agents were removed and the samples were washed three times with normal growth medium, simulating the diluting effect of saliva in the oral cavity during the periodontal treatments. Forty-eight hours after the treatments, the cell viability was measured by the cell proliferation reagent containing water-soluble tetrazolium salt, WST-1 [2-(4-Iodophenyl)-3-(4-nitrophenyl)-5-(2,4-disulfophenyl)-2H-tetrazolium] (Roche). This assay determines mitochondrial dehydrogenase enzyme activity resulting water-soluble cleavage product. The WST-1 reagent was used at 1:20 dilution and incubation time was 2 h at 37 °C. Absorbance was measured at 450 nm with a reference wavelength of 655 nm by a microplate reader (BIO-RAD Model 3550). Background control values were determined in wells seeded with no cells. Each value represents the average of minimum 3 parallel measurements.

[4] = test system: PDLSCs; assay: Impedimetry (xCELLigence), concentration-response study; assay type: cell-based, human; conditions: 48-h incubation, 0.5 normalized CI
Protocol: as §1
The effect of irrigative agents on the viability of the PDLSC cells was assessed using the xCELLigence SP System (Roche Applied Science, Indianapolis, IN, USA), which monitors the cellular events by measuring electrical impedance across interdigitating gold microelectrodes integrated on the bottom of tissue culture plates (E-plates). The detected impedance is influenced by the viability and morphology of the attached cells on the surface of the electrodes. The presence of cells due to their insulating plasma membranes constrain the electrical current and lead to an increase in the electrode impedance. The impedance depends on the number of the attached cells and on the dimensional change of the attached cells on the electrodes. More cells attached to the electrode or spreading cause a larger increase in the impedance. The change in impedances represented as “cell index” (CI) which is a relative and dimensionless value. Briefly, the experimental protocol was as follows: to register the background value, 100 μL of culture medium was added to each well and impedance was recorded for 1 h to gain constant background curves of impedance. […] The viability of the PDLSC was monitored for 96 h. Normalized impedance to the control calculated by the integrated software (RTCA 1.2—Roche Applied Science, Indianapolis, IN, USA) was used for the statistical evaluation. […]

[5] = test system: PDLSCs; assay: WST-1 viability assay, 10 min treatment; assay type: cell-based, human; conditions: P3 and P7, 48 h
Protocol: as §2

[6] = long incubation time; cited from earlier work
[7] = test system: STRO-1; assay: Immunocytochemistry of stem cell marker STRO-1; assay type: cell-based, human; conditions: 48 h
Protocol: (§3) PDLSC cultures grown in 8 chamber slides (Nunc Lab-Tek) were treated with the antiseptic agents similar to the viability studies. After 48 h, treated and untreated cell cultures were fixed in 4% PFA in PBS for 20 min at room temperature (RT). To block non-specific binding, 5% goat serum in PBS was applied for 1 h at RT. Then cell cultures were incubated with the primary antibodies diluted 1:100 with 2.5% goat serum in PBS overnight at 4 °C. The applied primary antibodies were the following: anti-STRO-1 antibody (type mouse IgM)—a generous gift from Prof. Richard Oreffo (University of Southampton, UK); anti-CD90 (Thy-1; type mouse IgG) and the anti-CD105 (endoglin; type mouse IgM) antibodies purchased from Calbiochem and Santa Cruz Biotechnology, respectively. Goat anti-mouse IgM and IgG type secondary antibodies conjugated with Alexa Fluor 488 (Molecular Probes) were diluted with 2.5% goat serum in PBS in 1:2000 and 1:1000 respectively. The incubation time was 60 min at RT. Finally, the walls of the chambers were removed and the slides were mounted with ProLong Gold antifade reagent with DAPI (Molecular Probes). Immunocytochemically labeled cell cultures were investigated under a fluorescence microscope (Nikon Eclipse E600), the photos were taken by a Retiga 2000R digital CCD camera (QImaging), and analyzed by the Image Pro software (Media Cybernetics). Free macros for automated fluorescence analysis of image processing software FIJI/ImageJ were applied to evaluate immunostaining of stem cell markers. Each test point represents 3 × 3 reading of the samples.

[8] = test system: CD90; assay: Immunocytochemistry of stem cell marker CD90; assay type: cell-based, human; conditions: 48 h
Protocol: as §3

[9] = test system: CD105; assay: Immunocytochemistry of stem cell marker CD105; assay type: cell-based, human; conditions: 48 h
Protocol: as §3

[10] = test system: Escherichia coli; set-up: method as in ref 1 (supplement); conditions: 1 µm diameter cylindrical bacterium; c0 = 300 mg/L (4.45 mM); formula (C), pig bladder parameters; ref 1 (supplement); cited from earlier work
[11] = test system: human gingival fibroblasts; set-up: method as in PMID 1962413; conditions: cited from earlier work
[12] = test system: equine fibroblasts; conditions: equine fibroblasts; cited from earlier work
[13] = test system: bacteria; set-up: method as in PMID 24060558, PMID 23529300; conditions: direct antibacterial and biofilm-dissolving effects; cited from earlier work
[14] = set-up: method as in ref S1; conditions: ref S1, cited from earlier work
[15] = 0.3% H2O2, 0.02% CHX, higher ClO2 concentration (0.0025%)
[16] = P3, 0.02% CHX, 0.0025% (1/1) ClO2
[17] = P7, 0.02% CHX, 0.0025% (1/1) ClO2

OO [H2O2, hydrogen peroxide]
long-term (2–120 h) effect on normalized CI ([1]; 0.3% H2O2, 0.02% CHX): retained their short-term cytotoxic effects
short-term (0–2 h) effect on normalized CI ([1]; 0.3% H2O2, 0.02% CHX): rapid decrease of normalized CI profile
viability of PDLSC cultures, impedimetry ([1]; P3 and P7, 0.3% H2O2, 0.02% CHX): complete lack of any viable cells
time to kill all the cells ([1]; impedimetric results, 0.3% H2O2): ≤ 1 min
state of cultures at fixation for immunocytochemistry ([2]; 48 h after treatment with H2O2): all the cells were dead and detached from the slide
cell morphology and cell number under phase-contrast microscope [2]: number of cells dramatically decreased
IC50 [3]: 209 µM
IC50 [4]: 327 µM
viability of PDLSC cultures, WST-1 [5, 15]: complete lack of any viable cells
concentrations at which in vitro sporicide effects are evident [6]: 10–30%

[O][Cl+][O-] [ClO2, chlorine dioxide]
long-term (2–120 h) effect on normalized CI ([1]; 0.3% H2O2, 0.02% CHX): consistent increase of the curves
short-term (0–2 h) effect on normalized CI ([1]; 0.3% H2O2, 0.02% CHX): significantly less toxic compared to the other two antiseptic substances
repopulation in long-term impedimetric analysis ([1]; 5-day-long period after treatment): proliferation of the remaining cell population can compensate cell loss
normalized Cell Index (CI) two days after the treatment ([1]; 10 minute treatment in 2.5 mg/l ClO2 solution): ≈ 0.8
normalized Cell Index (CI) two days after the treatment ([1]; 10 minute treatment in 25 mg/l ClO2 solution): about 0.5
viability of PDLSC cultures, impedimetry ([1]; P3, higher ClO2 concentration (0.0025%)): significant inhibitory effect
viability of PDLSC cultures, impedimetry ([1]; P3 and P7, lower ClO2 concentration (0.00025%)): unequivocally neutral
cells killed during the first 30 min ([1]; impedimetric results, 0.02% CHX, ClO2 depending on the concentration applied (0.0025%, 0.00025%)): 20–30%
cell morphology and cell number under phase-contrast microscope [2]: did not provoke morphological changes
STRO-1 Fluo. int. [%] Control = 100% ([7]; P3, 0.00025% (1/10) ClO2): 145.78** %
STRO-1 Fluo. int. [%] Control = 100% [7, 16]: 216.52*** %
STRO-1 Fluo. int. [%] Control = 100% ([7]; P7, 0.00025% (1/10) ClO2): 114.69%
STRO-1 Fluo. int. [%] Control = 100% [7, 17]: 120.43* %
CD90 Fluo. int. [%] Control = 100% ([8]; P3, 0.00025% (1/10) ClO2): 159.23** %
CD90 Fluo. int. [%] Control = 100% [8, 16]: 83.07%
CD90 Fluo. int. [%] Control = 100% ([8]; P7, 0.00025% (1/10) ClO2): 54.92*** %
CD90 Fluo. int. [%] Control = 100% [8, 17]: 97.74%
CD105 Fluo. int. [%] Control = 100% ([9]; P3, 0.00025% (1/10) ClO2): 127.80* %
CD105 Fluo. int. [%] Control = 100% [9, 16]: 213.90*** %
CD105 Fluo. int. [%] Control = 100% ([9]; P7, 0.00025% (1/10) ClO2): 15.74*** %
CD105 Fluo. int. [%] Control = 100% [9, 17]: 55.46*** %
killing time (TKILL) [10]: 4.4 ms
IC50 [3]: 638 µM
LD50 ([11]; human gingival fibroblasts): 0.16 mM
apoptotic responses ([11]; low concentrations of ClO2): did not induce apoptotic responses
IC50 [4]: 795 µM
viability of PDLSC cultures, WST-1 [5, 15]: no effect
viability of PDLSC cultures, WST-1 ([5]; lower ClO2 concentration (0.00025%)): unequivocally neutral
toxicity compared with CHX [12]: less toxic to equine fibroblasts than CHX
times lower concentration of ClO2 needed to evoke the same or even stronger effect than that of CHX [13]: approximately 10 times
diffusion coefficient D(pig bladder) ([14]; cellular pig bladder tissue): 1.8×10^–6 cm^2s^–1
diffusion coefficient D(gelatine) ([14]; unstructured gelatine gel medium): 2.4×10^–6 cm^2s^–1
